Here are results for nine compounds from patent US10098901B2, “Derivatives of oxazaphosphorines and therapeutic uses thereof” (INSTITUT GUSTAVE ROUSSY, priority 2014, dated 2018).

Where two headings read alike, the source gives them in different places.

In data set [1] the test system is RMS-1 cell line. The data set is described as follows: cells. The note with it: for IC50: read-out: In vitro Activity (IC50) RMS-1. As for the experimental part:
(§1) The experiments were conducted in the absence of cytochrome.
(§2) The cells were seeded in 96-well plates at optimal cell density determined previously and incubated with 100 μL of DMEM or RPMI containing 10% of FBS and 100 U/mL penicillin and 100 μg/mL streptomycin at 37° C., 5% CO2 in moist atmosphere. After 24 h, the cells were treated with 100 μL of the different pre-activated prodrugs at different concentrations:
(§3) Depending on the cell line, 2 to 5 h incubation are needed to obtain the optimum optical density which was measured at 490 nm wavelength using a microplate reader (EL808, Biotek Instrument). Untreated cells were used as control. Each compound concentration was tested in six replicates.

For data set [2], the system named is A673 (human Ewing Sarcoma cell line). The experiment in a line: cells. The settings on record: for IC50: Homo sapiens, read-out: In vitro Activity (IC50) A673. As to the method: as §1, §2, §3
A short description of data set [3]: Physico-chemical characterisation of nano-assemblies (DLS, Zeta potential, drug loading). The settings on record: nanoprecipitation acetone/water, no surfactant. It is filed as physicochemical. As for the experimental part: Nano-assemblies (NAs) from prodrugs Geranyloxy-IFO (3b) at a concentration of 2 mg/mL and 5 mg/ml, were prepared in a single step by nanoprecipitation of solution (8 mg/mL in acetone) in milliQ® water (ratio acetone:water 1:4; v:v). Formation of NAs occurred immediately without the use of any surfactant. The organic solvent was then evaporated at room temperature under vacuum using a Rotavapor® and the organic solvent-free colloidal dispersions were stored at 4° C.
The hydrodynamic diameter of the NAs was measured at 20° C. by Dynamic Light scattering using a Nanosizer ZS (Malvern Instrument Ltd, France). An amount of 20 μL of the suspension was diluted in 980 μL of Milli-Q water. The results give the mean hydrodynamic diameter of the dispersed NAs from three independent series of ten measurements. The standard deviation and the polydispersity index were also given.
The Zeta (ξ) potential was also determined by dilution of 20 μL of the suspension in 980 μL of a […] solution using a Nanosizer ZS (Malvern Instrument Ltd, France).

The test system of data set [4] is human rhabdomyosarcoma (RD cell line) xenografted in nude mice. The experiment in a line: Anti-tumor effect in vivo, RD xenograft. The settings on record: intravenous. As for the experimental part: In vivo cytotoxic efficacy was evaluated first on a model of human rhabdomyosarcoma xenografted in nude mice. The model used is RD cell line. The cells were first amplified in culture and counted. Cells were injected subcutaneously in both flanks of each mouse.
The administration was performed by intravenous route at day 0.

A short description of data set [5]: In vitro release of 4-HO-IFO in mouse plasma. The format is in vitro ADME. The note with it: 37° C., without activation by cytochromes.
The conditions of data set [6]: squalenoyl IFO derivatives described in WO2012/076824; cited from earlier work.
The subject of data set [7] is A673 (human Ewing Sarcoma cell line). The settings on record: comparison values for squalenoyl derivatives (WO2012/076824); cited from earlier work.
Data set [8] has as its system RMS-1 cell line. The note with it: comparison values for squalenoyl derivatives (WO2012/076824); cited from earlier work.
The mark [9] stands for this setting: RMS-1, 72 h, absence of cytochrome.
The mark [10] stands for this setting: A673, 72 h, absence of cytochrome.

Turning to `CC(C)CCCC(C)CCO` (stereo not drawn) [3,7-dimethyloctanol], the “cytotoxicity, in words” value (with RMS-1 cell line [1]; in data set [2]) was “The same results were observed” each time. Also, the IC50 in the data set on RMS-1 cell line [1] (RMS1, 72 h) is over 50 µM; in data set [2] (A673, 72 h) it was over 200 µM.

For `CC(C)CCCC(C)CCOC1CCOP(=O)(NCCCl)N1CCCl` (stereo not drawn) [13,17-Dimethyloctyloxy-IFO (3c), 13,17-Dimethyloctyloxy-IFO], the “formation of nanoparticles (self-assembly)” value (shortened to “formation of nanoparticles”) in data set [3] is reported as “did not provide any suspension of nanoparticles”. Besides, the IC50 with RMS-1 cell line [1] (RMS1, 72 h) was over 50 µM; in the data set on RMS-1 cell line [1] (RMS1, 96 h), 11.3 ± 5.8 µM; in data set [2] (A673, 72 h) it was over 200 µM; in data set [2] (A673, 96 h), 24.5 ± 2.1 µM. For the same compound, the “cytotoxicity, in words” value (in the data set on RMS-1 cell line [1] (setting [9]); in data set [2] (setting [10])) was “did not exhibit significant cytotoxicity” throughout.

With `CC(C)=CCC/C(C)=C/CO` [Geraniol, (trans)-3,7-dimethyl-2,6-octadien-1-ol], the “tumor volume growth (Vtjx/Vtj0)” value in data set [4] (single dose 59 mg/kg, day 0) is given as “No tumor growth inhibition”. In addition, the “cytotoxicity, in words” value (in the data set on RMS-1 cell line [1]; in data set [2]) was “The same results were observed” each time. For the same compound, the IC50 in the data set on RMS-1 cell line [1] (RMS1, 72 h) is over 50 µM; in data set [2] (A673, 72 h), over 200 µM.

With `CC(C)=CCC/C(C)=C/COC1CCOP(=O)(NCCCl)N1CCCl` (stereo not drawn) [Geranyloxy-IFO (bulk) (3b), Geranyloxy-IFO], the figures for the “formation of nanoparticles” value in data set [3] (listed as Geranyloxy-IFO) and in data set [3] (listed as geranyloxy-IFO) were “gave satisfactory NAs” and “able to self-organize into nanoparticles”, respectively. Further, the “tumor volume growth (Vtjx/Vtj0)” value was “showed antitumor activity” in data set [4] (single dose 158 mg/kg (equivalent to 100 mg/kg of IFO), day 0, free form, listed as Geranyloxy-IFO) and “prevent the tumor growth” in data set [4] (single dose 158 mg/kg (equivalent to 100 mg/kg of IFO), day 0, free form, listed as geranyloxy-IFO). Moreover, the IC50 was 9.3 ± 4.2 µM in the data set on RMS-1 cell line [1] (RMS1, 72 h) and 25.3 ± 1.5 µM in data set [2] (A673, 72 h). For the same compound, the “cytotoxicity, in words” value (in the data set with RMS-1 cell line [1] (setting [9]); in data set [2] (setting [10])) was “significant cytotoxicity” throughout. Moreover, the “release of 4-HO-IFO, in words” value in data set [5] is listed as “released”.

On to `O=P1(NCCCl)OCCCN1CCCl` (stereo not drawn) [IFO, ifosfamide], for which the “tumor volume growth (Vtjx/Vtj0)” value in data set [4] (single dose 300 mg/kg, day 0) is reported as “antitumor activity”. In addition, the “cytotoxicity, in words” value (in the data set on RMS-1 cell line [1]; in data set [2]) was “did not exhibit significant cytotoxicity” each time. Further, the IC50 with RMS-1 cell line [1] (RMS1, 72 h) was over 50 µM; in data set [2] (A673, 72 h) it was over 200 µM.

In the case of `CCCCCO` [Pentanol, pentanol], the “cytotoxicity, in words” value (in the data set on RMS-1 cell line [1]; in data set [2]) was “The same results were observed” throughout. Also, the IC50 was over 500 µM in the data set with RMS-1 cell line [1] (RMS1, 72 h) and over 200 µM in data set [2] (A673, 72 h).

For `CCCCCOC1CCOP(=O)(NCCCl)N1CCCl` (stereo not drawn) [Pentyloxy-IFO (3a), Pentyloxy-IFO], in data set [3], the “formation of nanoparticles” value is “did not provide any suspension of nanoparticles”. Also, the IC50 in the data set on RMS-1 cell line [1] (RMS1, 72 h) is 5.3 ± 1.7 µM; in data set [2] (A673, 72 h), 17.7 ± 2.3 µM.

For `CC(C)=CCC/C(C)=C/CC/C(C)=C/CC/C=C(\C)CC/C=C(\C)CCCOC1CCOP(=O)(NCCCl)N1CCCl` (stereo not drawn) [SQ-IFO], in data set [6], the drug loading was 40.4% and the mean diameter is recorded as 147 nm. In data set [7], the IC50 is 22 ± 5 µM. In addition, in the data set with RMS-1 cell line [8], the IC50 is 11.4 ± 5 µM.

For the compound `CC(C)=CCC/C(C)=C/CC/C(C)=C/CC/C=C(\C)CC/C=C(\C)CCC(=O)NCCSC1CCOP(=O)(NCCCl)N1CCCl` (stereo not drawn) [SQ-thio-IFO], in data set [6], the drug loading is listed as 36.3% and the mean diameter was 170 nm. Moreover, the concentration for half-maximal inhibition (IC50) in data set [7] was 23.2 ± 1.3 µM. The IC50 in the data set on RMS-1 cell line [8] is 33 ± 1.8 µM.

One may read the IC50 as the midpoint of a concentration-inhibition curve.
